Data on three molecules can be found in patent US8614324B2, “Filamin A binding anti-inflammatory and analgesic” (priority 2008, dated 2013).

Each structure is given as a SMILES string.

Test [1] in a line: Mouse hot-water tail-flick test. The format is in vivo. The conditions noted are these: orally administered. The protocol: The mouse “tail flick” test was used to assay the relative antinociceptive activity of compositions containing a compound to be assayed. This assay was substantially that disclosed by Xie et al., 2005 J. Neurosci 25:409-416.
The mouse hot-water tail-flick test was performed by placing the distal third of the tail in a water bath maintained at 52° C. The latency until tail withdrawal from the bath was determined and compared among the treatments. A 10 second cutoff was used to avoid tissue damage. Data are converted to percentage of antinociception by the following formula: (response latency−baseline latency)/(cutoff−baseline latency)×100 to generate dose-response curves. […] Relative potency was determined as a ratio of the A50 values.
To assess tolerance to the antinociceptive effect, the compound was administered twice daily for 7 days at an A90 dose (dose that results in a 90% antinociceptive effect in the 52° C. warm-water tail-flick test), and the tail-flick test was performed daily after the a.m. dose. […] Assays were typically carried out separately using at least 32 and 56 mg/kg dosages, with some assays also separately carried out at 18 and 100 mg/kg.

The test system of test [2] is TNF-α release from primary human astrocytes. Briefly: LPS-induced cytokine release from primary human astrocytes, TNF-α. It counts as cell-based. How it is done:
(§1) The following study was undertaken to investigate whether contemplated compounds and (+)NLX affect LPS-induced release of the pro-inflammatory cytokine (IL-1β, IL-6 and TNF-α) release from primary human astrocytes. […]
(§2) Primary astrocytes culture was prepared according to the provider's instructions (Lonza). The adherent astrocytes were trypsinized by 0.25% trypsin-EDTA, then collected and sub-cultured in 12-well plate (1.2 ml/well). […] Vehicle groups were pretreated with 0.1% DMSO only. Following addition of LPS, incubation continued for 24 hours. Culture medium was used as the blank and the levels of cytokines, TNF-α, IL-6 and IL-1β in 200 μl of culture medium were determined. Each well was sampled twice.
(§3) Plates were washed 3 times with ice-cold 50 mM Tris HCl (pH 7.4) and incubated at 30° C. with 200 μl medium derived from the above mentioned conditions. Plates were washed 3 times with ice-cold 50 mM Tris HCl (pH 7.4) and incubated at 30° C. with 0.5 μg/well un-conjugated rabbit anti-anti-INF-α, -IL-6 and -IL-1β for 1 hour. After two 1 minute washes with 50 mM Tris HCl (pH 7.4), each well was incubated in 0.5 μg/well FITC-conjugated anti-rabbit IgG (human and mouse absorbed) for 1 hour at 30° C. Plates were washed twice with 200 μl ice-cold Tris HCl, pH 7.4 and the residual […] signals were determined by multimode plate reader, DTX880 (Beckman).

Test [3] has as its system IL-6 release from primary human astrocytes. As to the kind of experiment: LPS-induced cytokine release from primary human astrocytes, IL-6. It counts as cell-based. How it is done: as §1, §2, §3
For test [4], the system named is IL-1β release from primary human astrocytes. As to the kind of experiment: LPS-induced cytokine release from primary human astrocytes, IL-1β. It counts as cell-based. The protocol: as §1, §2, §3
Test [5] deals with Bn-VAKGL pentapeptide of filamin A (FLNA) (Homo sapiens, UniProt P21333). As to the kind of experiment: FITC-NLX-based FLNA screening assay (FLNA peptide binding assay). Particulars: 10 nM FITC-NLX, read-out: Percent inhibition of FITC-NLX binding. The protocol: The final assay volume is 100 μl.
Compounds are tested in triplicate or quadruplicate.

The target in another test is filamin A (Homo sapiens, UniProt P21333). Particulars: read-out: affinity of binding to filamin A; cited from earlier work.
Sequence of filamin A (P21333 whole entry): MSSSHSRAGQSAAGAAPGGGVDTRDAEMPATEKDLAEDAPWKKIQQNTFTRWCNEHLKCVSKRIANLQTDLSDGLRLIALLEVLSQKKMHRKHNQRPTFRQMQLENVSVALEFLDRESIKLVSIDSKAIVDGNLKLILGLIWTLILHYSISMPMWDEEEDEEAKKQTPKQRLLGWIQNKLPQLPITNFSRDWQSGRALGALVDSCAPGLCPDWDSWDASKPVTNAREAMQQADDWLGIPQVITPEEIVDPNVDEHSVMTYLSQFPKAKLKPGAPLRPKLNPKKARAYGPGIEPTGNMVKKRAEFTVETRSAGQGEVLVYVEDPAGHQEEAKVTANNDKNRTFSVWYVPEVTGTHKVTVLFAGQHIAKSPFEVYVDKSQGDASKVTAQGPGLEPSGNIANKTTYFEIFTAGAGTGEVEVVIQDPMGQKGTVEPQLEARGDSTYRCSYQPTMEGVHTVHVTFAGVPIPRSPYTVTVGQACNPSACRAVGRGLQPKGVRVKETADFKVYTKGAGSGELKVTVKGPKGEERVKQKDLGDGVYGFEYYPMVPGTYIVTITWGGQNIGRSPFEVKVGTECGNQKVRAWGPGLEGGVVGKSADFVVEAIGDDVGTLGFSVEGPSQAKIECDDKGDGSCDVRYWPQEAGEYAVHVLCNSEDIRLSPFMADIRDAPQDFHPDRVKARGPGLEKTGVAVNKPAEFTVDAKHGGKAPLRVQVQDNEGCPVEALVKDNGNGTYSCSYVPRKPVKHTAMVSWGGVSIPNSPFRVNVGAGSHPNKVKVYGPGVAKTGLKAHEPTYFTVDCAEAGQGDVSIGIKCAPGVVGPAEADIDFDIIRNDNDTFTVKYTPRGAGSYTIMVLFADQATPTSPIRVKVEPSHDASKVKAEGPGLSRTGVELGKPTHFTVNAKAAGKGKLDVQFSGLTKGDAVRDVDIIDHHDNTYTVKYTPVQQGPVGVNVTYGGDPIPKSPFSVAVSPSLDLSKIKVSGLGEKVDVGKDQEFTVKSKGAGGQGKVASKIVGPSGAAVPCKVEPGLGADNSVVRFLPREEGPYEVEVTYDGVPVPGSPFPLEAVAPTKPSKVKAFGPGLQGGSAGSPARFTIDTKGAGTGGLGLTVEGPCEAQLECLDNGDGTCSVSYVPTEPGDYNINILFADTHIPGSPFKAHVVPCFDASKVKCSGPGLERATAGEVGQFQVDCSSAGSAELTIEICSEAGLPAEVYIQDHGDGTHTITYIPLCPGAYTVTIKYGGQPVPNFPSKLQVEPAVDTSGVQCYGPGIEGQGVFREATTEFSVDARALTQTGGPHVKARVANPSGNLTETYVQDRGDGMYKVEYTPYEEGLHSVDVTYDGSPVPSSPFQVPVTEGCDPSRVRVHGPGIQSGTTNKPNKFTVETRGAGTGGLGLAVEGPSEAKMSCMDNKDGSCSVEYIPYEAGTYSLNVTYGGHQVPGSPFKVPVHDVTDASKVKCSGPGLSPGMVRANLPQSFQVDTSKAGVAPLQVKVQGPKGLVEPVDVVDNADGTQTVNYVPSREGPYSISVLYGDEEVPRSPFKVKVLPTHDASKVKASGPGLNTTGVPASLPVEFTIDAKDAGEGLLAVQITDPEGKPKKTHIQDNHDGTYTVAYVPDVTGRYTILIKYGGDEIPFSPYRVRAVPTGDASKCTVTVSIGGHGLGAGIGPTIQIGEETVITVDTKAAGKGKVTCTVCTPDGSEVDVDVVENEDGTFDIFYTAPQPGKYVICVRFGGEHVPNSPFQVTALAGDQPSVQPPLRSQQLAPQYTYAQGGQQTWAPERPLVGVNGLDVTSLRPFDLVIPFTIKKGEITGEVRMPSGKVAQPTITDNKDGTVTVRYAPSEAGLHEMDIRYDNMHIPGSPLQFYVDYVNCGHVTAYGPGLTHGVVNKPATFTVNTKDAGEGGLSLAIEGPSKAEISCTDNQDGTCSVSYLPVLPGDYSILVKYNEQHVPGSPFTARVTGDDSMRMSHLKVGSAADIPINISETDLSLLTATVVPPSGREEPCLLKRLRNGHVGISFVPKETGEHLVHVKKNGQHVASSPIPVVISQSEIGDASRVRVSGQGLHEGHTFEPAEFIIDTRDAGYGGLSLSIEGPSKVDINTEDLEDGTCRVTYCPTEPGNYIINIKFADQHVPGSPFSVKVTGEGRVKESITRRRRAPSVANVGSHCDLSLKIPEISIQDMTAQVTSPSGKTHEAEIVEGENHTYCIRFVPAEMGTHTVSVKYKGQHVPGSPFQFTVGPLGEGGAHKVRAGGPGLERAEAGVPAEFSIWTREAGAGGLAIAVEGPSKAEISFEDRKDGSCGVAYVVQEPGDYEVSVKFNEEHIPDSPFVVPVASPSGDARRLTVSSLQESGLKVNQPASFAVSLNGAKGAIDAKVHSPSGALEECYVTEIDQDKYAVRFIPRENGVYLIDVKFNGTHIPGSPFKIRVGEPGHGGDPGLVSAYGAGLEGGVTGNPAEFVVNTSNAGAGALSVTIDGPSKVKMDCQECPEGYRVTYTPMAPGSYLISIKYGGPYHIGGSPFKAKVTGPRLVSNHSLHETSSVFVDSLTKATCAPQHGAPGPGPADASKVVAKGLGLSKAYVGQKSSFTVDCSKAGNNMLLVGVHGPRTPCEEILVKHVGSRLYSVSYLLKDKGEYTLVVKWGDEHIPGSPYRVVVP
A further test has as its target T1, mu opiate receptor (MOR) (Rattus norvegicus, UniProt P33535).
T1 construct: from tissue; host or cells: striatal membrane preparation (rat striatum)
As to the kind of experiment: MOR agonist activity, [35S]GTPγS binding assay using striatal membranes. It counts as biochemical. Set-up: MOR agonist activity, [35S]GTPγS binding to Gαo: reference not given here. How it is done: To assess the mu opiate receptor (MOR) agonist activity of positive compounds from the FLNA screening, compounds were tested in a [^35S]GTPγS binding assay using striatal membranes.
Striatal tissue was homogenized in 10 volumes of ice cold 25 mM HEPES buffer, pH 7.4, which contained 1 mM EGTA, 100 mM sucrose, 50 μg/ml leupeptin, 0.04 mM PMSF, 2 μg/ml soybean trypsin inhibitor and 0.2% 2-mercaptoethanol. The homogenates were centrifuged at 800×g for 5 minutes and the supernatants were centrifuged at 49,000×g for 20 minutes. The resulting pellets were suspended in 10 volume of reaction buffer, which contained 25 mM HEPES, pH 7.5, 100 mM NaCl, 50 μg/ml leupeptin, 2 μg/ml soybean trypsin inhibitor, 0.04 mM PMSF and 0.02% […].
The resultant striatal membrane preparation (200 μg) was admixed and maintained (incubated) at 30° C. for 5 minutes in reaction buffer as above that additionally contained 1 mM MgCl2 and 0.5 nM [^35S]GTPγS (0.1 μCi/assay, PerkinElmer Life and Analytical Sciences) in a total volume of 250 μl and continued for 5 minutes in the absence or presence of 0.1-10 μM of an assayed compound of interest. The reaction was terminated by dilution with 750 μl of ice-cold reaction buffer that contained 20 mM MgCl2 and 1 mM EGTA and immediate centrifugation at 16,000×g for 5 minutes.
The resulting pellet was solubilized by sonicating for 10 seconds in 0.5 ml of immunoprecipitation buffer containing 0.5% digitonin, 0.2% sodium cholate and 0.5% NP-40. Normal rabbit serum (1 μl) was added to 1 ml of lysate and incubated at 25° C. for 30 minutes. Nonspecific immune complexes were removed by incubation with 25 μl of protein A/G-conjugated agarose beads at 25° C. for 30 minutes followed by centrifugation at 5,000×g at 4° C. for 5 minutes. The supernatant was divided and separately incubated at 25° C. for 30 minutes with antibodies raised against Gαo proteins (1:1,000 dilutions).
The immunocomplexes so formed were collected by incubation at 25° C. for 30 minutes with 40 μl of agarose-conjugated protein A/G beads and centrifugation at 5,000×g at 4° C. for 5 minutes. The pellet was washed and suspended in buffer containing 50 mM Tris-HCl, pH 8.0, and 1% NP-40. The radioactivity in the suspension was determined by liquid scintillation spectrometry. […] DAMGO (H-Tyr-D-Ala-Gly-N-MePhe-Gly-OH; 1 or 10 μM) was used as a positive control.

Where [6] appears, read: 10 pM compound 2 hours prior to LPS (1 μg/ml) and continued 24 hours.
[7] abbreviates: 1 nM compound 2 hours prior to LPS (1 μg/ml) and continued 24 hours.
The mark [8] stands for this setting: 100 nM compound 2 hours prior to LPS (1 μg/ml) and continued 24 hours.
Where [9] appears, read: 100 fM compound 2 hours prior to LPS (1 μg/ml) and continued 24 hours.

T1 sequence (P33535 whole entry): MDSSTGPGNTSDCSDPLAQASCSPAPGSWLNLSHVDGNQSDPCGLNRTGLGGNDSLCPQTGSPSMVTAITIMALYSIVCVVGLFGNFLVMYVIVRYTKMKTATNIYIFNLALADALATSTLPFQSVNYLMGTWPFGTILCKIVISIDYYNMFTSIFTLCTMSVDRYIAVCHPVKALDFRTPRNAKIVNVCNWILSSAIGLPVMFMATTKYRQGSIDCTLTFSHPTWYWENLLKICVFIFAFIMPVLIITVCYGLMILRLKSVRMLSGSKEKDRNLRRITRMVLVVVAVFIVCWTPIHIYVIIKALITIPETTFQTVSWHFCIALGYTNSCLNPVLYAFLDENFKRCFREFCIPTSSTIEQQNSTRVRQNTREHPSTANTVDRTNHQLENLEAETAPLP

With `O=S(=O)(c1ccc(F)cc1)N1CCOC12CCN(CC1CC1)CC2` [F-C0134], the “Maximum Antinociception (%)” value in test [1] (56 mg/kg) was 93%. For the same molecule, the “Time to Max.” value in test [1] (56 mg/kg) was 20 min. Besides, the “TNF-α Average % (±SEM)” value was 75.7 (1.8) % in test [2] (setting [6]), 77.4 (4.2) % in test [2] (setting [7]), 75.4 (1.6) % in test [2] (setting [8]) and 77.0 (2.8) % in test [2] (setting [9]). In addition, the “IL-6 Average % (±SEM)” value in test [3] (setting [6]) is on record as 78.8 (1.5) %; in test [3] (setting [7]), 78.2 (1.8) %; in test [3] (setting [8]), 76.3 (2.8) %; in test [3] (setting [9]), 81.3 (2.4) %. Further, the “IL-1β Average % (±SEM)” value in test [4] (setting [6]) was 78.0 (5.5) %; in test [4] (setting [7]), 77.7 (2.9) %; in test [4] (setting [8]), 73.2 (3.9) %; in test [4] (setting [9]), 73.3 (5.3) %.
In the case of `C=CCN1CC[C@]23c4c5ccc(O)c4O[C@H]2C(=O)CC[C@@]3(O)[C@H]1C5` [NLX, naloxone, reference compound], the inhibition at 0.01 µM in test [5] (0.01 μM compound) came out at 40.6%. Further, in test [5] (0.1 μM compound), the inhibition at 0.1 µM came out at 47.8%. Further, in test [5] (1 μM compound), the inhibition at 1 µM was found to be 51.5%. The Kd at filamin A is approximately 4 pM.
Consider `COc1ccc(S(=O)(=O)N2CCSC23CCNCC3)cc1` [S-C0027], for which the “Maximum Antinociception (%)” value in test [1] (56 mg/kg) came out at 70%; in test [1] (100 mg/kg), 90%. Besides, the “Time to Max.” value in test [1] (56 mg/kg) and in test [1] (100 mg/kg) was 30 min in each case. Besides, the “MOR agonist activity, [35S]GTPγS binding to Gαo” value is recorded as 156.2% at mu opiate receptor (MOR) (0.1 μM compound, striatal membranes); 56.2% at mu opiate receptor (MOR) (1 μM compound + BFNA (1 μM β-funaltrexamine)); 286.8% at mu opiate receptor (MOR) (1 μM compound, striatal membranes). Moreover, the “TNF-α Average % (±SEM)” value is recorded as 73.6 (3.8) % in test [2] (setting [6]), 72.7 (0.7) % in test [2] (setting [7]), 74.0 (1.7) % in test [2] (setting [8]) and 77.7 (2.7) % in test [2] (setting [9]). Further, the “IL-6 Average % (±SEM)” value in test [3] (setting [6]) was 75.6 (1.5) %; in test [3] (setting [7]), 77.4 (4.2) %; in test [3] (setting [8]), 83.1 (2.1) %; in test [3] (setting [9]), 81.0 (1.7) %. Besides, the “IL-1β Average % (±SEM)” value in test [4] (setting [6]) is given as 85.8 (1.3) %; in test [4] (setting [7]), 81.9 (2.3) %; in test [4] (setting [8]) it was 79.5 (2.4) %; in test [4] (setting [9]), 86.8 (2.0) %.
